Reference: patent US20260364013A1, “COMPOSITION AND METHOD OF PREPARATION OF BLOACTIVE TRITERPENOID MILK FAT GLOBULE FORMULATIONS” (EFNATICS B.V., priority 2023, published 2026)

Key:
[1] = at a range of molar ratios; cited from earlier work
[2] = test system: tumor; assay: Anti-tumor effect in mice after oral liposomal betulinic acid; format: in vivo; details: extrapolated from 150 mg/kg weekly oral dose in mice
[3] = test system: cancer cell lines; details: cited from earlier work
[4] = test system: non-cancerous healthy cells; details: in vitro; cited from earlier work
[5] = at concentrations effectively limiting cancer growth, up to 500 mg per kg bodyweight; cited from earlier work
[6] = test system: stearoyl-CoA-desaturase (SCD-1); details: role: inhibitor; cited from earlier work
[7] = test system: tumor; details: oral, liposomal betulinic acid; cited from earlier work
[8] = test system: tumor growth of predominant cancer types; details: preclinically in vivo; cited from earlier work

Structure (SMILES): C=C(C)[C@@H]1CC[C@]2(C(=O)O)CC[C@]3(C)[C@H](CC[C@@H]4[C@@]5(C)CC[C@H](O)C(C)(C)[C@@H]5CC[C@]43C)[C@@H]12 [betulinic acid, (3β)-3-Hydroxylup-20 (29)-en-28-oic acid]
- Miscibility with outer leaflet membrane phospholipids [1]: miscible
- Weekly dose extrapolated to an individual of 80 kg [2]: 12 gr
- Activity against cancer types in vitro [3]: broad activity against all prevalent cancer types in vitro
- Cytotoxicity for non-cancerous healthy cells [4]: absent
- Signs of toxicity in animal experiments [5]: no signs of toxicity were observed
- Effect on SCD-1 activity [6]: inhibit the activity of stearoyl-CoA-desaturase (SCD-1)
- Weekly orally administered dose required for the observed anti-tumor effects in mice [7]: 150 mg/kg bodyweight
- Tumor growth inhibition [8]: inhibits tumor growth of predominant cancer types

Structure (SMILES): C=C(C)[C@@H]1CC[C@]2(C)CC[C@]3(C)[C@H](CC[C@@H]4[C@@]5(C)CC[C@H](O)C(C)(C)[C@@H]5CC[C@]43C)[C@@H]12 [lupeol, (3β)-Lup-20 (29)-en-3-ol]
- Miscibility with outer leaflet membrane phospholipids [1]: miscible
